# Measured values reported in publication PMC6359144 (International Journal of Molecular Sciences, 2019).
# Assays:
# [1] = test system: p21, p27, cyclin D1 in 518A2 melanoma cells; assay: Western blot of cell cycle regulatory proteins; format: cell-based, human; details: 24 h; for effect on p21 expression: 4d […]–4 µM, SAHA 5 µM
# Description: After harvesting and lysing of the cells, western blotting was performed as described before. For subsequent analysis, the protein-loaded membranes were incubated with antibodies directed against p21 (Abcam ab109199), p27 ([…]), cyclin D1 (Cell Signaling 29225) and GADPH (Santa Cruz sc25778) in 1:1000 dilutions. After incubation with horseradish peroxidase-coupled anti-IgG antibodies (1:10,000; Amersham), the blot was developed using the Celvin-S developer (Biostep) and the software SnapAndGo 1.8.1.
# [2] = test system: acetyl–alpha-tubulin in 518A2 melanoma cells; assay: Western blot and immunofluorescence of acetyl-alpha-tubulin; format: cell-based, human; details: 4f 4, 5, 6 µM (blot), 4 µM (immunofluorescence), 24 h
# Description: After harvesting the cells by trypsination, they were pelleted by centrifugation (300× g, 5 min) followed by cell lysis in 100 µL lysis buffer (20 mM DTT, 200 µM sodium vanadate, 50 mM Tris/HCl, 1% triton X-100, 150 mM NaCl, pH 7.4) for 10 min on ice. […] Equal amounts of total protein were subjected to 10% SDS-polyacrylamide gel electrophoresis (SDS-PAGE) and transferred to polyvinylidene difluoride membranes (PVDF, Carl Roth). For subsequent analysis of acetylated protein and of alpha-tubulin which was used as a loading control, membranes were blocked and incubated with primary antibody solutions in 5% bovine serum albumin in 1× TBS or 5% milk powder in PBS, respectively. The protein bands were visualized by chemoluminescence (secondary antibody-HRP conjugates, ECL detection system; Cell Signaling) using a LAS-3000 imager (Fujifilm).
# Immuofluorescence staining of acetylated alpha- tubulin.
# After washing the cells with PBS, they were fixed in 3.7% formaldehyde in PBS (20 min, rt) followed by blocking and permeabilization in TBS supplemented with 5% BSA and 0.1% triton X-100 (30 min, rt). […]
# antibody conjugate in the dark (2 h, rt). […] Pictures were taken by using a Zeiss Imager A1 AX10 fluorescence microscope (400× magnification). […]
# The open image area after 24 h (%) compared to that at 0 h was quantified from three independent experiments by using the imageJ 1.50i software. […]
# nude mice = assay: In vivo toxicity in nude mice; set-up: species or system mouse; details: 1 × 100 mg/kg i.p., 1 × 200 mg/kg orally
# Description: In vivo toxicity of 4d was studied in nude mice (Charles River Laboratories, Sulzfeld, Germany). These experiments were carried out following the institutional guidelines. 4d was formulated in 10% Tween80/10% ethanol/80% saline for administration. […] The body weight of the mice was assessed daily under therapy.
Compound,effect on p21 expression [1],acetylation of alpha-tubulin [2],effect on cyclin D1 level ([1]; 4d 0.15–4 µM),body weight changes (nude mice) [%],tolerability in mice (nude mice; observed two weeks)
"COc1ccc(-c2ocnc2-c2cc(Br)c(OC)c(OC)c2)cc1OCCCCCC(=O)NO [4f, N-Hydroxy-6-[1-methoxy-4-(4’-(3’’-bromo-4’’,5’’-dimethoxyphenyl)oxazol-5’-yl)-2-phenoxy]hexanamide]",upregulated p21 expression in a dose-dependent way,distinct increase of acetyl–alpha-tubulin,–,–,–
"COc1ccc(-c2ocnc2-c2cc(Br)c(OC)c(OC)c2)cc1OCCCC(=O)NO [4d, N-Hydroxy-4-[1-methoxy-4-(4’-(3’’-bromo-4’’,5’’-dimethoxyphenyl)oxazol-5’-yl)-2-phenoxy]butanamide]",distinctly suppressed p21 expression,–,increased the level of cyclin D1,≤ 5,tolerated well
